Reference: a melting point compilation (Tetko et al.; mined from patent text by program, amines drawn as free bases though some values may be those of a salt)

Row | melting point | Structure (SMILES)
1 | 44 to 46 °C | COCC(C)N(C(=O)CCl)c1c(C)cccc1C (configuration not stated)
2 | 174 to 176 °C | CCNCCCC(O)c1ccc(NS(C)(=O)=O)cc1 (configuration not stated)
3 | 104 °C | N#CC(CC(=O)O)c1ccc(Cl)c(Cl)c1 (configuration not stated)
4 | 106 to 113 °C | CCCCc1nc2c(c(=O)[nH]1)CN(C(C)=O)CC2
5 | 259 to 263 °C | CCCn1cc2c(C3C(=O)Nc4ccc(S(=O)(=O)N(C)C)cc43)nc(NCCN(C)C)nc2n1 (configuration not stated)
6 | 170 to 171 °C | COc1cc(Oc2cccc3c2NC(=O)C3)cc(OC)c1OC
7 | > 300 °C | O=c1[nH]c2sc3ccc(I)cc3c2[nH]c1=O
8 | 61 to 62 °C | CCCCCCCCCCCCCOc1ccc(C(C)=O)o1
9 | 78 °C | N#CCN1CCc2oc3ccccc3c2C1
10 | 129 to 130 °C | CCOc1cc2cc3c(Nc4cc(OC)c(Cl)cc4C)c(C#N)cnc3cc2cc1OCCCl
11 | 170 °C | Cc1nn(C)c(-n2ccc3cc(Cl)ccc32)c1CCS(=O)(=O)NC(=O)OCC1CC1
12 | 193 to 194 °C | CS(=O)(=O)CCNC(=O)c1cccc(-c2ccc3c(c2)C(c2ccc(Cl)cc2Cl)CC3)c1 (configuration not stated)
13 | 92 °C | CCn1cc(-c2cccc(C(F)(F)F)c2)c(=O)n1-c1ccc(F)cc1
14 | 225 to 226 °C | CSc1ccc(NC(=O)N2CC(c3ccc(C(F)(F)F)cn3)C(c3ccc(Cl)cc3)=N2)cc1 (configuration not stated)
15 | 121 to 124 °C | CC(=O)NCC(=O)c1cc(OC(C)=O)c(OC(C)=O)c([N+](=O)[O-])c1
16 | 164 to 166 °C | O=C1NC(=O)C(Cc2ccc(OCCON=Cc3ccc4ccccc4n3)cc2)S1 (configuration not stated)
17 | 204 to 206 °C | O=c1[nH]nc(Cc2ccncn2)c2ccccc12
18 | 219 to 220 °C | CCCc1ccc2nc(C(F)(F)F)c(S(=O)(=O)N=CN(C)C)n2n1
19 | 192 to 193 °C | CC1(O)CCN(Cc2ccc(C#CC(=O)Nc3ccc(-c4ccc(Cl)cc4)cc3)cc2)CC1
20 | 124 to 126 °C | CCN1CCC(=O)N(c2c(C)cccc2C)C1=S
21 | 195 °C | CCNC(CC)CCOc1ccc(-c2ccc(C(=O)O)cc2)cc1-c1ccc2c(c1)C(C)(C)CCC2(C)C (configuration not stated)
22 | 101 to 103 °C | OCc1ccc2c(c1)ncn2-c1cccc(COCc2ccccn2)c1
23 | 142 to 143 °C | COC(=O)c1snc(-c2ccc([N+](=O)[O-])cc2)c1C(=O)OC
24 | 94 to 96 °C | O=S(=O)(NCCN1CC(c2ccccc2)C(c2ccc(Cl)cc2)=N1)c1cccc(C(F)(F)F)c1 (configuration not stated)

Row | melting point | Structure (SMILES)
25 | 80 to 81 °C | Cc1cc(O)c(S(=O)CCC(C)C)c(=O)o1 (configuration not stated)
26 | 89.2 to 89.7 °C | O=Cc1ccc(OCc2ccccn2)cc1O
27 | 140 to 141 °C | COC(=O)c1c(OC)cccc1C(=O)O
28 | 53 to 56 °C | O=C(O)CN[C@H]1C[C@H](O)CO1 (relative stereo)
29 | 119 to 121 °C | O=C(Nc1ccccc1)c1cscc1Cl
30 | 201 to 205 °C | COc1ccc(-c2ccc(C(N)=O)cc2)cc1-c1cccc([N+](=O)[O-])c1
31 | 165 to 168 °C | COC1(C(=O)Cc2ccc(-c3ccc(O)cc3)cc2)C=CC(Cl)=CC1N (configuration not stated)
32 | > 210 °C | O=C(O)Cn1c(=O)c(=O)[nH]c2cc([N+](=O)[O-])c(-n3ccc(CN4CCC(c5ccccc5)CC4)c3)cc21
33 | 75 to 77 °C | COc1ccc(Oc2c(Cl)cc([N+](=O)[O-])cc2Cl)cc1C(C)C
34 | 219 °C | Cc1nc2c3c(c(C(=O)N(C)C)cc2[nH]1)CC[C@@H](c1ccccc1C)O3
35 | 189 to 192 °C | CCOc1ccccc1C=C1CCc2c1oc1ccc(C(=O)OC)cc1c2=O
36 | 97 to 100 °C | CCC(C(=O)N(C)C)n1cc(Br)cn1 (configuration not stated)
37 | 160 °C | CC(C)c1nc(C(C)C)c(CCCC(=O)O)c(-c2ccc(F)cc2)c1CO
38 | 184 to 185 °C | Cc1ccc(-c2ccc(C(=O)c3ccc(Cl)cc3Cl)cc2)cc1
39 | 74 to 75 °C | Nc1ccccc1C(=O)C1CCCCC1
40 | > 300 °C | CN1CCN(CC(=O)Nc2cccc3c2C(=O)c2c-3n[nH]c2-c2ccc(N(C)C)cc2)CC1
41 | 156 to 157 °C | CNC(=O)NC(CCSC)C(N)=O (racemic)
42 | 95 °C | O=c1ncc(Cl)cn1COCc1cccc(C(F)(F)F)c1
43 | 202 to 204 °C | CCC(C)(CC)c1nnc(NC(=S)c2c(OC)cccc2OC)s1
44 | 225 to 227 °C | O=C(O)COc1cc(Cl)ccc1C(=O)NCc1nc2cc(C(F)(F)F)ccc2s1
45 | 120 to 124 °C | O=S(=O)(NCC(c1ccccc1)c1ccc(O)cc1)c1ccccc1 (configuration not stated)
46 | 139 to 140 °C | O=C(O)c1ccccc1COc1ccc(CCCO)cc1
47 | 155 to 156 °C | O=C1CC=C2CCC(=O)N12
48 | 180 °C | CCOC(=O)Cc1cc(-c2ccccc2)nc2ccccc12

Row | melting point | Structure (SMILES)
49 | 279 to 281 °C | COc1ccc(Cl)c2oc(-c3ccc(S(N)(=O)=O)cc3)c(-c3ccc(F)cc3)c(=O)c12
50 | 241 to 243 °C | Cc1nn(-c2ccccn2)c2nccc(O)c12
51 | 58 to 59 °C | CCCCCCCCCCOc1ccccc1C(N)=O
52 | 207 °C | COc1cc(C(=O)O)ccc1Cc1c(Cl)n(C)c2cc(Cl)c(CCNC(=O)N(C)C)cc12
53 | 97 to 98 °C | C(=C\c1nc(COc2ccc(CCCn3ncnn3)cc2)co1)/c1ccccc1
54 | 74 to 77 °C | COC(=O)CCc1ccc(OCCn2c(=O)sc3cc(C(=O)c4ccccc4)ccc32)cc1
55 | 125 to 127 °C | Cn1c(C(F)(F)F)cc(=O)n(-c2cc(OCCBr)c(Cl)cc2F)c1=O
56 | > 280 °C | CCn1c(=O)c2[nH]c(C(F)=Cc3ccccc3)nc2n(CC)c1=O
57 | 178 to 180 °C | COC(=O)c1ccc2c(c1C(=O)OC)C(=O)OC2=O
58 | 111 to 114 °C | C#CCn1c(-c2ccccc2)nc(C(F)(F)F)c(CC)c1=O
59 | 56 °C | COc1cccc2c(N3CCN(C[C@H]4COc5ccc6nc(C)ccc6c5O4)CC3)coc12
60 | 159 to 161 °C | CC(C)(C)NC(=O)[C@@H]1CCCN1C(=O)[C@@H](O)[C@@H](N)Cc1ccccc1
61 | 185 to 188 °C | CCc1nn(C(=O)OC(C)(C)C)c2cc(-c3ccc4nnn(Cc5ccc6ncccc6c5)c4n3)ccc12
62 | 206 °C | COc1cc(OC)c(OC)cc1CN[C@@H](C(=O)O)[C@H](O)[C@H](Cc1ccccc1)NC(=O)OC(C)(C)C
63 | 286 to 288 °C | CCc1c2c(nn1CC)c(N)nc1ncccc12
64 | 101 °C | COC(=O)C1(C(F)F)c2ccccc2Oc2ccccc21
65 | 139 to 140 °C | O=C(CCCCCCc1ccccc1)Oc1cc(=O)n(-c2ccccc2)c2ncccc12
66 | 87 to 88 °C | CCc1nc2cc(N3CCN(C)CC3)nc(CC)n2n1
67 | 268 to 270 °C | CCn1nc2c(N)nc3ccccc3c2c1CC1(O)CCN(S(C)(=O)=O)CC1
68 | 236 to 237 °C | COCC#CC1=CC(C)(C)Oc2c(OC)cc(Cc3cnc(N)nc3N)cc21
69 | 88 to 89 °C | Cn1ccc(=O)c2cc(F)ccc21
70 | 196 to 198 °C | Cc1nc(-c2ccc(C(=O)N3Cc4cccnc4Nc4ccccc43)c(Cl)c2)n[nH]1
71 | 222 to 224 °C | COc1nc(NCn2nnc3ccccc32)nc(N(C)C)n1
72 | 129 to 130 °C | CCOC(=O)C1=C(C)NC(SCc2ccccc2)=NC1c1cccc([N+](=O)[O-])c1 (configuration not stated)

Row | melting point | Structure (SMILES)
73 | 146 to 150 °C | O=C(O)c1cc(F)c(N(CCO)CCO)c(F)c1
74 | 112 to 114 °C | COC(=O)[C@@](C)(CCC1=C(C)C(=O)C(C)=C(C)C1=O)OS(C)(=O)=O
75 | 167 to 171 °C | CC(=O)C(=Cc1cc(O)c(O)c(Cl)c1)C(C)=O
76 | 214 to 215 °C | COCCCn1c(CO)c(Cl)c2c3c(c(-c4ccccc4Cl)cc21)C(=O)NC3=O
77 | 107 to 110 °C | CC(=O)c1c(-c2cccc([N+](=O)[O-])c2)cc(C(=O)NCCN2CCOCC2)nc1C
78 | 84 to 114 °C | CN=C1c2ccccc2CCc2ccc(Cl)cc21
79 | 172 to 175 °C | COc1ccc(C2(CC(=O)O)CNC(=O)C2)cc1 (configuration not stated)
80 | 51 to 52.5 °C | COc1ccc(C(=O)N2CCC[C@H]2C(OC)OC)cc1
81 | 97 to 98 °C | CN1CCN(C(=O)C(C)(C)OCc2nn(Cc3ccccc3)c3ccccc23)CC1
82 | 104 to 106 °C | [N-]=[N+]=NC1CC(n2cnc3c(NCC4CC4)nc(N)nc32)OC1CO (configuration not stated)
83 | 118 to 120 °C | CCCCc1ncc(CC(Cc2ccccc2)C(=O)OC)n1Cc1ccccc1Cl (configuration not stated)
84 | 170 to 171 °C | Fc1cc2[nH]c(S)nc2cc1N1CCCC1
85 | 249 °C | c1cc2c3c(nnc4c3c1OCC4)CCO2
86 | 80 to 81 °C | OCc1cc2c(F)ccc(Br)c2s1
87 | 167 to 168 °C | CC(=O)Oc1ccc(C=CC(=O)C=Cc2ccc(OC(C)=O)cc2)cc1
88 | 116 to 117 °C | OCc1cccc2sc(-c3ccccc3)nc12
89 | 50 to 52 °C | C=CCOc1cccc(C(=O)c2ccccc2C(=O)OC)c1
90 | 153 to 155 °C | Cn1ncc(CN2C(=O)c3ccccc3C2=O)c1-c1ccc(Cl)cc1C(=O)c1ccccc1F
91 | 132 to 134 °C | CCC1(CC)Nc2ccccc2-c2c([N+](=O)[O-])cnn21
92 | 77.5 to 79 °C | CCc1nc(C)c(C(C)(O)c2ccsc2)o1 (configuration not stated)
93 | 181 to 182 °C | CSc1ccc(C=C2C(C)=C(CC(=O)O)c3cc(F)c(F)cc32)cc1
94 | 160 to 162 °C | COC(=O)COc1cc2cccnc2c(-c2cccc([N+](=O)[O-])c2)n1
95 | 162 to 165 °C | C#Cc1cn(C2CC(O)C(CO)O2)c(=O)nc1N (configuration not stated)

Row | Structure (SMILES) | melting point
96 | CCCOc1ccc(-c2ccc3c(c2)C(C)(C)CCC3(C)C)cc1-c1ccc(C(=O)O)cc1 | 199 to 204 °C
97 | C#CCN(C)CC(O)c1cccc(O)c1 (configuration not stated) | 102 to 103 °C
98 | Cc1nnc2n1-c1ccccc1C(c1ccc(Cl)cc1)=NC2NN(C(=O)NN)C(=O)c1ccccc1 (configuration not stated) | 243 to 245 °C
99 | Cc1cc(C2=NOC(c3cc(Cl)cc(Cl)c3)(C(F)(F)F)C2)ccc1C(=O)Nc1ncccn1 (configuration not stated) | 122 to 124 °C
100 | CN1C(=O)CN(C=O)C(c2ccccc2)c2cc(Cl)ccc21 (configuration not stated) | 167 to 169 °C
101 | CCCCCC1=CC(=O)C2=C(OC(C)(C)c3ccc(C)cc32)C1=O | 53 to 54 °C
102 | CC(Cc1ccc(C2=NNC(=O)CC2)cc1)NCC(O)c1cccc(Cl)c1 (configuration not stated) | 49 to 50 °C
